Data as given in patent US20190248834A1, “ENDOMORPHIN-2, TETRAPEPTIDE DERIVATIVES THEREOF, AND USES THEREOF” (priority 2016, published 2019).
Primed or numbered codes have the meaning given here. *: point of attachment. Bz′ = not defined here; NHBn = c1ccc(CN*)cc1; NHiPr = CC(C)N*; NHPr = CCCN*; NHOH = ON*

How the values were obtained:
Assay type in all cases: in vivo, human
headache = experiment: Example 52: analgesic effect on headache; conditions: two 500 mg tablets, oral
Description: At 5:30 p.m., the headache pain was becoming more intense, at which time they topically applied a composition containing 1% (w/v) of N-Pg-Tyr-Pro-Phe-Phe-NH2 (SEQ ID NO: 44) in WEP442 to the entire forehead and temporal areas. […] There was no recurrence of symptoms over the next 3 days of follow-up time.

[1] = test system: psoriatic arthritis pain, fingers and wrists; experiment: Example 48: comparative analgesic efficacy, psoriatic arthritis pain of fingers and wrists, topical; conditions: 1% (w/v) in WEP442, topical
Description: […] Treatment of the subject over the years included methotrexate and other antimetabolites, and in recent years drugs known as biologic medications. While these agents have provided intervals of relief, none has provided a lasting benefit. Over the past decade, painful arthritis developed in both wrists and in numerous joints of the fingers. Four related tetrapeptide derivatives, 1% (w/v) solution compositions in vehicle WEP442, one at a time, were topically applied to the fingers and wrists of both hands. […] Efficacy was rated by the subject as 4+. • (B) N-Ac-Tyr-Pro-Phe-Phe-NHNH2 (SEQ ID NO: 31) provided slow relief of pain, i.e. within about 10 minutes. […] Analgesic efficacy was judged by the subject to be 0 to 1+.

[2] = test system: psoriatic arthritis, fingers and wrists; experiment: Example 95: comparative analgesic efficacy on pain of psoriatic arthritis, topical; conditions: for pain relief: 1% (w/v) in WEP442, topical to fingers and wrists
Description: […] Treatment of the subject over the years included methotrexate and other antimetabolites, and in recent years, drugs known as biologic medications. While these agents provided intervals of relief, none provided lasting benefit. Over the past decade, painful arthritis developed in both hands and knees, and in numerous joints of the fingers. Three related tetrapeptide derivatives, 1% (w/v) in vehicle WEP442, were topically applied to the fingers and wrists of both hands one at a time. […] Analgesic efficacy was rated by the subject as 75%.

[3] = test system: osteoarthritis of the knees; experiment: Example 94 (second): osteoarthritic knees, intra-articular injection of N-Bz hydrazide; conditions: 0.08% (0.8 mg/ml) in water, 1 ml per knee intra-articular
Procedure: A subject with osteoarthritis of the knees that progressively worsened over the years, evaluated the analgesic effectiveness of many topical preparations of tetrapeptide derivatives of the invention on numerous occasions. After such experiences they decided to self-inject […] knees with a sterile aqueous preparation of N-Bz-Tyr-Pro-Phe-Phe-NHNH2 (SEQ ID NO: 91) at a concentration of 0.08% (0.8 mg/ml) in water. Each knee was injected with 1 ml (0.8 mg) of the preparation via the sub-patellar route. […] The knees felt more comfortable than usual after 24 hours. The improvement from […] was judged to be more than 90% by clinical evaluation.

[4] = test system: severe osteoarthritis of both knees; experiment: Example 88: analgesic efficacy of eight derivatives on severe osteoarthritis, topical
Procedure: A subject with severe osteoarthritis of both knees for a duration of about 7 years evaluated numerous tetrapeptide derivatives over the past years. […] Over the course of 3 weeks, this subject evaluated the analgesic efficacy of eight (8) endomorphin-2 tetrapeptide derivatives in WEP442 at a concentration of 1% (w/v) applied topically to the knees.
Reapplication at the end of that time again provided the same effect. Application at bedtime provided relief of pain for 7 hours. The same results were achieved the next day (3+ to 4+ effect).
A second application, about 15 minutes later, provided somewhat more relief (2+ effect).
Application at 9:30 p.m. provided relief until 5:30 a.m., and similar results were achieved the next day (3+ to 4+ effect).
No modification of pain in the right knee, which had received application of vehicle WEP442 as a control, was detected. Application of the composition containing the tetrapeptide derivative to the right knee about 15 minutes later provided prompt relief of pain. Pain relief in both knees lasted for about 5 hours (3+ to 4+ effect).
Relief lasted for about 3 hours. Re-application at that time provided the same degree of pain relief in about 5 minutes, which lasted about another 3 hours (2+ effect).
For the above same subject, the composition containing 1% (w/v) of N-Fo-Tyr-Pro-Phe-Phe-NH2 (SEQ ID NO: 104) in WEP442 was applied to the left knee, and the composition containing 1% (w/v) of N-Bz-Tyr-Pro-Phe-Phe-NH2 (SEQ ID NO: 84) in WEP442 was applied to the right knee moments later. Relief of pain in both knees seemed equivalent, was detectable in 5-7 minutes and lasted for about 4 hours. This procedure was repeated the next day with about the same results. The degree of pain relief from both solutions was rated as 3+ effect.

[5] = test system: psoriatic arthritis of interphalangeal joints of the fingers; experiment: Example 93: multiple derivatives evaluated for relief of pain associated with psoriatic arthritis, topical; conditions: 0.8% (w/v) in WEP442, topical to both hands
Description: A subject with extensive plaque psoriasis and psoriatic arthritis of interphalangeal joints of the fingers evaluated multiple tetrapeptide derivatives for comparative effectiveness on relief of their painful fingers. Over the course of 4 weeks, this subject evaluated the analgesic efficacy of ten (10) endomorphin-2 tetrapeptide derivatives in WEP442 at a concentration of 0.8% (w/v) applied topically to both hands, which included all fingers.

[6] = test system: periostitis of right upper tibia, osteoarthritis of left knee, left hip joint pain, lower back pain; experiment: Example 87: pain relief at multiple sites in one subject, topical; conditions: for degree of analgesic effect / duration of pain relief / pain relief at the treated sites / time to pain relief: 0.8% (w/v) in WEP442, topical to the sites of pain; for duration of pain relief, right upper tibia: 0.8% (w/v) in WEP442, periostitis of right upper tibia
Description: A caregiver subject, presented with (a) painful periostitis of the right upper tibia for about 3 months, (b) painful early osteoarthritis of the left knee for about 1 year, (c) painful left hip joint of about 6 months, and (d) lower back pain near the end of the work day for about 2 years.
Over the course of 16 days, this subject evaluated the analgesic efficacy of eight (8) endomorphin-2 tetrapeptide derivatives in WEP442 at a concentration of 0.8% (w/v) applied topically to the sites of pain.
The lower back pain returned toward the end of the following work day.
Relief of lower back pain lasted for 20-24 hours (4+ effect). […]
For the above same subject, the composition containing 0.8% (w/v) of N-Ac-Tyr-Pro-Phe-Phe-NHCH(CH3)2 (SEQ ID NO: 27) in WEP442 was topically applied to the right upper tibia, left knee and left hip.
For the above same subject, the composition containing 0.8% (w/v) of N-Fo-Tyr-Pro-Phe-Phe-NH2 (SEQ ID NO: 104) in WEP442 was topically applied to 3 sites. Relief of pain was variable. […] Relief of pain in the right upper tibia was complete in about 4 minutes, lasting for 12 hours.
For the above same subject, the composition containing 0.8% (w/v) of N-Bz-Tyr-Pro-Phe-Phe-NH2 (SEQ ID NO: 84) in WEP442 provided relief of pain within 2-4 minutes. On the left hip, the relief was complete, lasting for about 12 hours (4+ effect). On the left knee, relief was incomplete, about 50%, lasting for only about 3 hours (2+ effect). On the right upper tibia, relief was complete and lasted for about 12 hours (4+ effect).

[7] = 1% (w/v) in WEP442, topical to the knees
[8] = 0.8% (w/v) in WEP442, lower lumbar
[9] = 0.8% (w/v) in WEP442, right upper tibia

Molecule	analgesic efficacy rated by the subject ([2]; 1% (w/v) in WEP442, topical)	duration of pain relief ([2]; 1% (w/v) in WEP442, topical)	pain relief [2]	pain relief [4, 7]	duration of pain relief [5]	pain relief [5]	time to pain relief [5]	degree of analgesic effect [6]	duration of pain relief [6]	pain relief at the treated sites [6]	time to pain relief [6]	duration of pain relief [4, 7]	other results
CC(=O)Nc1ccc(O)cc1 [acetaminophen, reference compound]													pain relief (headache): slight relief of pain
N-Pg-Tyr-Pro-Trp-Phe-NH2 [reference compound]													pain relief [1]: slow, minimal relief of pain
NNC(=O)[C@H](Cc1ccccc1)NC(=O)[C@H](Cc1ccccc1)NC(=O)[C@@H]1CCCN1C(=O)[C@H](Cc1ccc(O)cc1)NC(=O)c1ccccc1 [N-Bz-Tyr-Pro-Phe-Phe-NHNH2]	100%	about 24 hours	rapid complete relief of pain										discomfort from the injections [3]: no discomfort from the injections; duration of pain relief [3]: 11 h; improvement by clinical evaluation [3]: more than 90%; pains in both knees [3]: gradually disappeared
N-Bz-Tyr-Pro-Phe-Phe-NHOH ({Bz′}-YPFF-{NHOH})	90%	about 10 hours	rapid complete relief of pain										
N-Ac-Tyr-Pro-Phe-Phe-NHCH2CH2CH3 (Ac-YPFF-NHPr; SMILES CCCNC(=O)[C@H](Cc1ccccc1)NC(=O)[C@H](Cc1ccccc1)NC(=O)[C@@H]1CCCN1C(=O)[C@H](Cc1ccc(O)cc1)NC(C)=O)	75%	less than 6 hours	slower relief of pain										time to pain relief ([2]; 1% (w/v) in WEP442, topical): more than 5 minutes
N-Ac-Tyr-Pro-Phe-Phe-NHCH2C6H5 (Ac-YPFF-NHBn; SMILES CC(=O)N[C@@H](Cc1ccc(O)cc1)C(=O)N1CCC[C@H]1C(=O)N[C@@H](Cc1ccccc1)C(=O)N[C@@H](Cc1ccccc1)C(=O)NCc1ccccc1)				little relief of pain	about 6 hours	substantial relief of pain	3 to 5 min	4+	≥ 5 h	complete relief of pain	3 to 4 min		analgesic effect grade ([4]; 1% (w/v) in WEP442, second application about 15 minutes later): 2+ (2+ (50%): substantial but incomplete relief of pain for less than 4 hours); analgesic effect grade [4, 7]: 1+ (1+ (25%): partial relief of pain for less than 4 hours)
N-Ac-Tyr-Pro-Phe-Phe-NHOH (Ac-YPFF-{NHOH}; SMILES CC(=O)N[C@@H](Cc1ccc(O)cc1)C(=O)N1CCC[C@H]1C(=O)N[C@@H](Cc1ccccc1)C(=O)N[C@@H](Cc1ccccc1)C(=O)NO)				very good relief of pain	about 2 hours	complete relief of pain	1 to 2 min	4+	≥ 12 h	complete relief of pain	≤ 1 min	about 5 hours	time to pain relief [4, 7]: 3 to 4 min; duration of relief of lower back pain ([6]; 0.8% (w/v) in WEP442, lower back): 20 to 24 h
N-Bz-Tyr-Pro-Phe-Phe-NH2 ({Bz′}-YPFF-NH2)					about 10 hours	incomplete, but substantial relief of pain	4 to 5 min				2 to 4 min	about 4 hours	degree of analgesic effect, left hip ([6]; 0.8% (w/v) in WEP442, left hip): 4+; duration of pain relief, left hip ([6]; 0.8% (w/v) in WEP442, left hip): about 12 hours; pain relief, left hip ([6]; 0.8% (w/v) in WEP442, left hip): complete; duration of pain relief, left knee ([6]; 0.8% (w/v) in WEP442, left knee): about 3 hours; degree of analgesic effect, lower lumbar pain [6, 8]: 4+; duration of pain relief, lower lumbar pain [6, 8]: about 4 hours; pain relief, lower lumbar pain [6, 8]: responded completely; duration of pain relief, right upper tibia [6]: about 12 hours; degree of analgesic effect, right upper tibia [6, 9]: 4+; pain relief, right upper tibia [6, 9]: complete
N-Ac-Tyr-Pro-Phe-Phe-NHCH(CH3)2 (Ac-YPFF-NHiPr; SMILES CC(=O)N[C@@H](Cc1ccc(O)cc1)C(=O)N1CCC[C@H]1C(=O)N[C@@H](Cc1ccccc1)C(=O)N[C@@H](Cc1ccccc1)C(=O)NC(C)C)				moderate relief of pain	2 to 3 h	only minimal relief of pain	5 to 6 min	4+	at least 4 hours	Complete relief of pain	3 to 4 min	about 3 hours	analgesic effect grade [4, 7]: 2+ (2+ (50%): substantial but incomplete relief of pain for less than 4 hours); time to pain relief [4, 7]: ≤ 15 min; duration of pain relief, right upper tibia [6]: 7 h
